Data reported in patent publication US4762852A, “Benzodioxepanne, process for the synthesis thereof and use thereof” (Societe d'Etudes Scientifiques et Industrielles de l'Ile de …, priority 1985, dated 1988).
Like-named read-outs stand apart in the source and are kept apart here. Each block holds one molecule with its values, some of them ahead of it.

Columns and labels:
[1] = target: dopaminergic D2 receptors (Homo sapiens, UniProt P14416); experiment: in-vitro binding to dopaminergic D2 receptors, ligand 3H-spiperone; conditions: read-out: IC50, D2 receptor binding
Sequence of dopaminergic D2 receptors (P14416 whole entry): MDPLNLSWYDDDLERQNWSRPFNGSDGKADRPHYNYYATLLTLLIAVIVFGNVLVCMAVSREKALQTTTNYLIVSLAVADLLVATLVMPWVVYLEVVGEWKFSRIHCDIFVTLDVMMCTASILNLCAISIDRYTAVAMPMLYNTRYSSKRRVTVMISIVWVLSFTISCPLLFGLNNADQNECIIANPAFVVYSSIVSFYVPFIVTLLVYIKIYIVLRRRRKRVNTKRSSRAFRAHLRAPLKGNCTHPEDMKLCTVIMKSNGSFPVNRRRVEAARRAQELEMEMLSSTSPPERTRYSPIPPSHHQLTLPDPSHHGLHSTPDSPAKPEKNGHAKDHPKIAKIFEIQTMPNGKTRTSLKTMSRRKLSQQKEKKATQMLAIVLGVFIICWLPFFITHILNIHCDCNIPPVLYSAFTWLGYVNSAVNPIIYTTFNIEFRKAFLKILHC
Source text: (1) The compound bound very strongly in-vitro to dopaminergic D2 receptors.

[2] = test system: rat; experiment: kinetics of the cataleptigenic effect; type: in vivo; conditions: after subcutaneous injection
Experimental: (§1) In another test, the inhibitor doses 50 of the compound were evaluated according to Europ. J. Pharm. 50, pp. 291-300 (1978), the compound being administered at different times (15, 30, 60, 120 and 360 minutes) prior to administration of the agonistic agent, in this case apomorphine, in a dose of 0.5 mg/kg subcutaneous. It is thus possible to judge the power of the antagonism produced by the compound at those different times and also to evaluate the duration of the effect of the compound. […] Catalepsy appeared in fact, 11 minutes after subcutaneous injection of the compound and lasted for more than 5 hours and up to 12 hours in a rat, depending on the method of observation of the phenomenon.

[3] = test system: rat; experiment: cataleptigenic effect, another test; type: in vivo; conditions: sc, subcutaneous, read-out: cataleptigenic dose 50
Experimental: (§2) The cataleptigenic dose 50, as determined in accordance with Arz. Forsch. 12, pp. 964-968 (1962), was 5.3 mg/kg subcutaneously in a rat. Another test gave a value which was slightly higher, 8.5 mg/kg subcutaneous, also in a rat.

[4] = target: D1 receptor (Homo sapiens, UniProt P21728); experiment: in-vitro binding to D1 receptor against 3H-piflutixol; conditions: second of two values
Sequence of D1 receptor (P21728 whole entry): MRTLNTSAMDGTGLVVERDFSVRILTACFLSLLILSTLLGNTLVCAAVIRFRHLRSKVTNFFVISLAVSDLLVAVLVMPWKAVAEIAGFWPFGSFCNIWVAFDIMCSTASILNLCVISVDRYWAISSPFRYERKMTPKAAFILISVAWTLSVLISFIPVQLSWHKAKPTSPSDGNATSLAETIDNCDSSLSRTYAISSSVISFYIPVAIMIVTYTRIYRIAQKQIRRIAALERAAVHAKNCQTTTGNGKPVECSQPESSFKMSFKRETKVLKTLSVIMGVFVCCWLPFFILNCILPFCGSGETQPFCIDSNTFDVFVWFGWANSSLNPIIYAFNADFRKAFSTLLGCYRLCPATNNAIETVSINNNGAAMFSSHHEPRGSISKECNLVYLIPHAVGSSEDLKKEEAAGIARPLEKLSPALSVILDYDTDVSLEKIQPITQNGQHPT

[5] = partition coefficient; type: physicochemical
[6] = test system: stereotypies caused in a rat by amphetamine; experiment: antagonism of stereotypies caused in a rat by amphetamine, 10 mg/kg intravenous (Arz. Forsch. 11, 932-938, 1961); type: in vivo; conditions: sc
[7] = test system: rat; experiment: cataleptigenic effect (Arz. Forsch. 12, 964-968, 1962); type: in vivo; conditions: sc, subcutaneous
Experimental: as §2

[8] = test system: stereotypies in relation to amphetamine in a rat; experiment: antagonism of amphetamine stereotypies in a rat, amphetamine injected intraperitoneally; type: in vivo; conditions: read-out: ID50, amphetamine stereotypies
[9] = test system: stereotypies caused in rats by apomorphine; experiment: antagonism of stereotypies caused in rats by 0.5 mg/kg subcutaneous apomorphine (Europ. J. Pharmacol., 50, 291-300, 1978); type: in vivo; conditions: rat
Experimental: as §1, with “(2) The compound of the invention was a powerful anti-dopaminergic agent at the level of the central nervous system. Indeed, in the test in respect of stereotypies caused in rats by apomorphine, a dopaminergic agonistic agent, the compound antogonized that behavioral response at very low levels. Thus, when stereotypies were caused by 0.5 mg/kg of subcutaneous apomorphine, the inhibitor-50 dose of the compound was 0.52 mg/kg intraperitoneally. This test was conducted in accordance with the procedure in Europ. J. Pharmacol., 50, pp. 291-300 (1978). […] The reference compound is disclosed in U.S. Pat. Nos. 4,186,135 (Example 43) and 4,248,885. In” for “In”

[10] = test system: spontaneous motility of a mouse; experiment: reduction of spontaneous motility of a mouse, Activograph Method; type: in vivo; conditions: ip, intraperitoneal, read-out: ID50, reduction of spontaneous motility
Source text: (§3) Exp. Ther. 101, pp. 156-162 (1951).

[11] = test system: spontaneous motility of a mouse; experiment: reduction of spontaneous motility of a mouse, photoelectric method (J. Pharm. Exp. Ther. 101, 156-162, 1951); type: in vivo; conditions: intraperitoneal; for ED50: ip
Experimental: as §3
The kinetics of the inhibitor effect of the compound were studied in mice by evaluation of the inhibitor doses 50 at different distances from intraperitoneal injection of the compound. The procedure used was the photoelectric method described in J. Pharm. Exp. Ther. 101, pp. 156-162 (1951). […] Then, the variation in the ID50 between 0.55 and 0.9 indicated persistence of the effect up to 5 hours. The effect then became less clear, but could still be observed more than 5 hours after administration, which is in accordance with the duration attributed to the cataleptigenic effect.

[12] = test system: vigilance; experiment: vigilance of treated animals at higher neuroleptic doses; type: in vivo; conditions: higher neuroleptic doses which reduce motor function
Experimental: The compound of the invention has the pharmacological characteristics of a powerful neuroleptic, acting rapidly and in a long-term fashion, and, consequently, can be applied in states of agitation of acute and chronic psychoses. For this and other purposes the daily therapeutic dosage can be from about 5 to 50 mg/day in one or more doses, depending upon the severity of the psychoses. The compound of the invention can be administered in any number of conventional forms such as capsules, tablets, pills, in granulated form or as an injectable solution. Many methods for compounding these preparations are well-known to the art. Substances (or carriers) which are inert relative to the compounds of the invention can be used in these preparations, such as lactose, magnesium stearate, starch, talc, cellulose, levilite, alkali metal lauryl-sulphates, saccharose and other vehicles and carriers commonly employed in pharamaceutical preparations. The examples which follow illustrate several possible pharmaceutical preparations.

[13] = test system: stereotypies caused in rats by apomorphine; experiment: antagonism of stereotypies caused by 1.25 mg/kg intravenous apomorphine (Arzn. Forsch. 10, 1003-1005, 1960); type: in vivo; conditions: compound subcutaneous, apomorphine 1.25 mg/kg intravenous; for ED50: Rattus norvegicus, sc, read-out: ID50, apomorphine stereotypies
Source text: (2) The compound of the invention was a powerful anti-dopaminergic agent at the level of the central nervous system. Indeed, in the test in respect of stereotypies caused in rats by apomorphine, a dopaminergic agonistic agent, the compound antogonized that behavioral response at very low levels. […] […] […] The reference compound is disclosed in U.S. Pat. Nos. 4,186,135 (Example 43) and 4,248,885.

[14] = solubility; type: physicochemical
[15] = ip, compound intraperitoneal, apomorphine 0.5 mg/kg subcutaneous, read-out: inhibitor-50 dose (ID50), apomorphine stereotypies

- IC50 [1]: 0.00316 µM
- IC50 [4]: 63.1 µM
- logP [5]: 0.519
- solubility in dilute acids ([14]; dilute acids): Soluble
- solubility in cold ethyl acetate ([14]; ethyl acetate, cold): soluble when cold in 30 volumes
- solubility in hot ethyl acetate ([14]; hot ethyl acetate (2 volumes)): Highly soluble
- solubility in hot methanol ([14]; hot methanol (2 volumes)): Highly soluble
- solubility in cold methanol ([14]; methanol, cold): very weakly soluble
Structure (SMILES): CCS(=O)(=O)c1cc2c(c(C(=O)NCC3CCCN3CC3=CCCCC3)c1)OCCCO2 (stereo not shown) [compound of the invention, N-(1-cyclohexenylmethyl-2 pyrrolidylmethyl)-8-ethylsulphonyl-1,5-benzodioxepanne 6-carboxamide]
- time to appearance of catalepsy [2]: 11 min
- ED50 [3]: 8.5 mg/kg
- ED50 ([6]; rat, compound subcutaneous, amphetamine 10 mg/kg intravenous, read-out: inhibitor dose 50 (ID50), amphetamine stereotypies): 0.062 mg/kg
- ED50 ([7]; rat, read-out: cataleptigenic dose 50): 5.3 mg/kg
- ED50 ([8]; ip, amphetamine intraperitoneal, other experimental conditions): 0.4 mg/kg
- ED50 ([8]; sc, compound subcutaneous, action already found at the 12th minute): 0.4 mg/kg
- ED50 [9, 15]: 0.52 mg/kg
- ED50 ([9]; sc, 0.25 h, compound subcutaneous 15 minutes before apomorphine 0.5 mg/kg subcutaneous, read-out: ID50, apomorphine stereotypies, 15 minutes after injection): 0.066 mg/kg
- ED50 ([9]; sc, compound subcutaneous, apomorphine 0.5 mg/kg subcutaneous, read-out: ID50, apomorphine stereotypies): 0.039 mg/kg
- ED50 [10]: 0.93 mg/kg
- time after administration at which inhibitor effect on motility could still be observed [11]: more than 5 hours
- ED50 ([11]; 5 min, 5 minutes after injection, read-out: ID50, reduction of motility after 5 minutes): 0.69 mg/kg
- ED50 ([11]; photoelectric method, read-out: ID50, reduction of spontaneous motility): 0.58 mg/kg
- vigilance at higher neuroleptic doses [12]: retain a certain degree of vigilance
- ED50 [13]: 0.092 mg/kg
- ID50, apomorphine stereotypies ([13]; rat): 0.082 mg/kg

Structure (SMILES): CCN1CCCC1CNC(=O)c1cc(S(=O)(=O)CC)cc2c1OCCCO2 (stereo not shown) [reference compound, N-(1-ethyl-2-pyrrolidinylmethyl) 8-ethylsulphonyl-1,5-benzodioxepanne-6-carboxamide, reference compound]
- ED50 ([6]; Rattus norvegicus, subcutaneous, amphetamine route and dose not stated, read-out: ID50, amphetamine): 39.4 mg/kg
- ED50 ([7]; Rattus norvegicus, which of the two catalepsy tests is not stated, read-out: ED50, cataleptigenic effect): 59.5 mg/kg
- ED50 [9, 15]: 36.4 mg/kg
- ED50 [13]: 156 mg/kg
